What was measured:
[1] = tested on: Mast/stem cell growth factor receptor Kit (Homo sapiens), P10721 [D816H]; settings: Compound concentration 1000.0 nM
[2] = target: Dual specificity tyrosine-phosphorylation-regulated kinase 2 (Homo sapiens) (UniProt Q92630); settings: Compound concentration 1000.0 nM
[3] = target: D(3) dopamine receptor (Homo sapiens) (UniProt P35462); settings: Compound concentration 10.0 uM
[4] = target: T1, Serine/threonine-protein kinase D2 (Homo sapiens) (UniProt Q9BZL6); settings: Compound concentration 1000.0 nM
T1 sequence (whole entry): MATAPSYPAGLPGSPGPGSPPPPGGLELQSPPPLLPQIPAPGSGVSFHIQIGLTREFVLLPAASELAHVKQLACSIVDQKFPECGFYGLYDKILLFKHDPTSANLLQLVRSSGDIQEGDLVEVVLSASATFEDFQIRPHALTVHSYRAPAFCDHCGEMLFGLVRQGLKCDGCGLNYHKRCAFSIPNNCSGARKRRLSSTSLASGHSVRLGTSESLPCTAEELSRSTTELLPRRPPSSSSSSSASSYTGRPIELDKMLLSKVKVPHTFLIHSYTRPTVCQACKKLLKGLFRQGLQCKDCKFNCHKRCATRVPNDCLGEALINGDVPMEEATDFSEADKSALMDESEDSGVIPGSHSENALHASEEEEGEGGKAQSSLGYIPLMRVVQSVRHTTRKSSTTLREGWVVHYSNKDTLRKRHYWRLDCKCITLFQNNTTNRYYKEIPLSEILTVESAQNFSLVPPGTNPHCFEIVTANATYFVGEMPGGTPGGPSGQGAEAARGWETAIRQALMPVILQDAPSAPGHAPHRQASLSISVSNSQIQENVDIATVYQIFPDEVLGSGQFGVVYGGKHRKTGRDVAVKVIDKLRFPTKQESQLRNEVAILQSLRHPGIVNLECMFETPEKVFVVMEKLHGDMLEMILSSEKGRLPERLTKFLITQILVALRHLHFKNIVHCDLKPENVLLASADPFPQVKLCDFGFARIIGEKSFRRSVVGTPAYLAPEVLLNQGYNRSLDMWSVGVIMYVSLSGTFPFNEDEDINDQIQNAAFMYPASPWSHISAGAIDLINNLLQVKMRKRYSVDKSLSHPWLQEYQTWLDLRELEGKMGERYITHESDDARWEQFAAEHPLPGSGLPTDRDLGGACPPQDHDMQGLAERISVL

[5] = target: Epithelial discoidin domain-containing receptor 1 (Homo sapiens) (UniProt Q08345); settings: Compound concentration 1000.0 nM
Chain of Epithelial discoidin domain-containing receptor 1 (Homo sapiens) (Q08345 whole entry, the tested form may be a part): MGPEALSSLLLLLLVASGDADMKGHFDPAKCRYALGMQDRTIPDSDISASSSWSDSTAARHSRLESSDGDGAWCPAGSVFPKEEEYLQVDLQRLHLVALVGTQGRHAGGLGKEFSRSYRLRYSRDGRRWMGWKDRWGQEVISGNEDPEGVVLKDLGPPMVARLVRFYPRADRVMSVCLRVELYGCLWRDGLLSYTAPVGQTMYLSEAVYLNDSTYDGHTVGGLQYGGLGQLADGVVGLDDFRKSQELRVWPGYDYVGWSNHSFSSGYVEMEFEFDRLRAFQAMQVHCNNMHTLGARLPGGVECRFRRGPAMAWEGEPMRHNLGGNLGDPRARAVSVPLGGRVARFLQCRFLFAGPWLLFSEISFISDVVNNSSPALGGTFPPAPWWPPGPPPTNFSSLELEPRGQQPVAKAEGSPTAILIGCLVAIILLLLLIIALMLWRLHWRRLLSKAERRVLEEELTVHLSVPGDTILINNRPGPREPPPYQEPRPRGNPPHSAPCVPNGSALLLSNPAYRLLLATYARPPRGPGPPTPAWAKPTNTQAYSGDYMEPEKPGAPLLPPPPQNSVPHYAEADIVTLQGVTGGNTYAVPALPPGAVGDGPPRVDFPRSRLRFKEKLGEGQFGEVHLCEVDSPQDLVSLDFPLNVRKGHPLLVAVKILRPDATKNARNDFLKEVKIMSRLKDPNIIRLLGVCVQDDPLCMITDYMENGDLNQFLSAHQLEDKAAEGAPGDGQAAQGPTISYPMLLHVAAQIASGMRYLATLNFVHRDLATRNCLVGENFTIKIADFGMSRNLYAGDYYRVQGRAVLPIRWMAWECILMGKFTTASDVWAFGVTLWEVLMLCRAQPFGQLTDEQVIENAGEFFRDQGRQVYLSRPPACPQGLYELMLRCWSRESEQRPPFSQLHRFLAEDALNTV

[6] = target: Fibroblast growth factor receptor 1 (Homo sapiens) (UniProt P11362); settings: Compound concentration 1000.0 nM
Chain of Fibroblast growth factor receptor 1 (Homo sapiens) (P11362 22-822 limits assumed): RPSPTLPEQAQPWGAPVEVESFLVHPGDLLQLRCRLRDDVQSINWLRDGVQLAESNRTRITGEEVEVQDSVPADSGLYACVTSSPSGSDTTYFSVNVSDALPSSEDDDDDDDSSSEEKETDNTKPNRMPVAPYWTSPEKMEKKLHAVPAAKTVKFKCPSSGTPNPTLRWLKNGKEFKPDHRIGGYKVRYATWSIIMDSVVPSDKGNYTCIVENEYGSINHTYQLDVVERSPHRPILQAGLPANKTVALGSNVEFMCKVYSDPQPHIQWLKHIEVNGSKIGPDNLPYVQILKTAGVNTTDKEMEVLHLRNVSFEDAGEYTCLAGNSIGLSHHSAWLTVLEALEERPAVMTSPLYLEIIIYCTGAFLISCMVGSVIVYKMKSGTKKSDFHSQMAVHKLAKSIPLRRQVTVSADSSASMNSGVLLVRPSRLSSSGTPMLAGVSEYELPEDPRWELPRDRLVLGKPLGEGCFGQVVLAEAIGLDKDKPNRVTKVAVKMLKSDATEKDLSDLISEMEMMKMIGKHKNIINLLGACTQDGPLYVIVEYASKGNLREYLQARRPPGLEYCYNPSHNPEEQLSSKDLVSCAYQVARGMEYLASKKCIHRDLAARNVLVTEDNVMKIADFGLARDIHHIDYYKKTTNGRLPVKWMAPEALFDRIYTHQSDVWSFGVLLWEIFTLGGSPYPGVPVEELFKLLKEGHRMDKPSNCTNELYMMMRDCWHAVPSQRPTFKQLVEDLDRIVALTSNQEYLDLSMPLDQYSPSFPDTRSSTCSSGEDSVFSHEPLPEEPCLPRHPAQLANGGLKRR

[7] = target: Cyclin-dependent kinase 19 (Homo sapiens) (UniProt Q9BWU1); settings: Compound concentration 1000.0 nM
[8] = target: T2, Serine/threonine-protein kinase NLK (Homo sapiens) (UniProt Q9UBE8); settings: Compound concentration 1000.0 nM
T2 sequence (whole entry): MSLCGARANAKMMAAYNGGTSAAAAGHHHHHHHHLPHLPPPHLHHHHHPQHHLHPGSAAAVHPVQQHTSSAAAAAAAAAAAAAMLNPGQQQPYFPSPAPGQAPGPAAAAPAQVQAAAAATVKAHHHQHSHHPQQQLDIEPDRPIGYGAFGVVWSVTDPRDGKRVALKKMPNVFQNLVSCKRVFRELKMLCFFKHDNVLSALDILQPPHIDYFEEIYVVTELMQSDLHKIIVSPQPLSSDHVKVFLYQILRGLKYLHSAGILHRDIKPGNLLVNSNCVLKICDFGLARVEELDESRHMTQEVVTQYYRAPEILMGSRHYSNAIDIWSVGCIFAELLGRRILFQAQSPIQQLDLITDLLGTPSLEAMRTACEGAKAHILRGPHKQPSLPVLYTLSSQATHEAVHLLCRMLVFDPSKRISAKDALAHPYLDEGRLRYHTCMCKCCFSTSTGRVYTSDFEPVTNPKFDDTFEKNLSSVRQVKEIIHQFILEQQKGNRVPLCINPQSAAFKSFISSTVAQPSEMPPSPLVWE

[9] = target: Mitogen-activated protein kinase 9 (Homo sapiens) (UniProt P45984); settings: Compound concentration 1000.0 nM
Chain of Mitogen-activated protein kinase 9 (Homo sapiens) (P45984 whole entry, looked up): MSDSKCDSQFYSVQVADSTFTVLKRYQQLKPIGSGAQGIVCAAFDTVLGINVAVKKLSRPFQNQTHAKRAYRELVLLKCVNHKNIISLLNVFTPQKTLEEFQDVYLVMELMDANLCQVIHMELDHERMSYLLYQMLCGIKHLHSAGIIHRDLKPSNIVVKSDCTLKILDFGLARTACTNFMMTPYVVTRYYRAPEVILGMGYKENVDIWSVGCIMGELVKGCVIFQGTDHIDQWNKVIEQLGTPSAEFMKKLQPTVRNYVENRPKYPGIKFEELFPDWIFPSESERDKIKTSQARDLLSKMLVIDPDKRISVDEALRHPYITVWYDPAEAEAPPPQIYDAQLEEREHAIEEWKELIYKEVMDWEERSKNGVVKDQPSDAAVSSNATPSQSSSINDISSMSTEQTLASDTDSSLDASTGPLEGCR

[10] = target: Muscarinic acetylcholine receptor M5 (Homo sapiens) (UniProt P08912); settings: Compound concentration 10.0 uM
Chain of Muscarinic acetylcholine receptor M5 (Homo sapiens) (P08912 whole entry): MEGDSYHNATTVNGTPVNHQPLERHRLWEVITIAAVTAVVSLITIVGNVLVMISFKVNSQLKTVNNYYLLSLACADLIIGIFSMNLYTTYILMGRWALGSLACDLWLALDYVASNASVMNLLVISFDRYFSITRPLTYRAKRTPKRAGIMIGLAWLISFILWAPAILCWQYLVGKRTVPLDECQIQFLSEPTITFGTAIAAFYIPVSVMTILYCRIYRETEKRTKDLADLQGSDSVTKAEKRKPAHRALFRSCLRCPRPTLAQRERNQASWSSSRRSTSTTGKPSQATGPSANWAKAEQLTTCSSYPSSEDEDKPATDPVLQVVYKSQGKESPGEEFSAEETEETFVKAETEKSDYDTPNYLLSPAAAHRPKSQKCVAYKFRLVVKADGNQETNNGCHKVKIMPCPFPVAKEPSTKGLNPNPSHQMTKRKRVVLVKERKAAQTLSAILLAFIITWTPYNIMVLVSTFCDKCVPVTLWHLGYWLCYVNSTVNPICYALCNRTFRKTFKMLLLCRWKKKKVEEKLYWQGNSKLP

[11] = target: T3, Muscarinic acetylcholine receptor M4 (Homo sapiens) (UniProt P08173); settings: Compound concentration 10.0 uM
T3 sequence (whole entry): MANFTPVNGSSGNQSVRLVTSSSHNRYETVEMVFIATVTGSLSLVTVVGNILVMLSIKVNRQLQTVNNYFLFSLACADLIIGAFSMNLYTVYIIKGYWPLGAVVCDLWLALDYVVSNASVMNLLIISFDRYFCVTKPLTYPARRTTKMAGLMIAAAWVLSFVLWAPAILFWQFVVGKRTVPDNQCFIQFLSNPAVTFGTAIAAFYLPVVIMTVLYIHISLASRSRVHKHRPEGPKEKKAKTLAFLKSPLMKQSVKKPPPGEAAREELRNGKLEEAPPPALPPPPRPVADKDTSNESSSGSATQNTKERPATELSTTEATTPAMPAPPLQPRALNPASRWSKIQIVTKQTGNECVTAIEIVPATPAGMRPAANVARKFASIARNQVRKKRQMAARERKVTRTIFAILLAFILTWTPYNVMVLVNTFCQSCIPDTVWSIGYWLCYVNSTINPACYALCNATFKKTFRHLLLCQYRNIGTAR

[12] = target: 5-hydroxytryptamine receptor 5A (Homo sapiens) (UniProt P47898); settings: Compound concentration 10.0 uM
Chain of 5-hydroxytryptamine receptor 5A (Homo sapiens) (P47898 whole entry): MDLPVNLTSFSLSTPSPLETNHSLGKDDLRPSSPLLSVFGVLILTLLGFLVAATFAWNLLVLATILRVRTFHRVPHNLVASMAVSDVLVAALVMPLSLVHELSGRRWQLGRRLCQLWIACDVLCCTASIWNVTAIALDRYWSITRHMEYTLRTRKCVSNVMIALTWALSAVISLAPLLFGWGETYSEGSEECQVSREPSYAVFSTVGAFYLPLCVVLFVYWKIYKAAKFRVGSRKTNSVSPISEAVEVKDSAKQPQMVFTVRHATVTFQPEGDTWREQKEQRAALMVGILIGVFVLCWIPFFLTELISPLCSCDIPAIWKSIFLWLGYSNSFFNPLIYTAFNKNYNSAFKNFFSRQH

Chain of Dual specificity tyrosine-phosphorylation-regulated kinase 2 (Homo sapiens) (Q92630 whole entry): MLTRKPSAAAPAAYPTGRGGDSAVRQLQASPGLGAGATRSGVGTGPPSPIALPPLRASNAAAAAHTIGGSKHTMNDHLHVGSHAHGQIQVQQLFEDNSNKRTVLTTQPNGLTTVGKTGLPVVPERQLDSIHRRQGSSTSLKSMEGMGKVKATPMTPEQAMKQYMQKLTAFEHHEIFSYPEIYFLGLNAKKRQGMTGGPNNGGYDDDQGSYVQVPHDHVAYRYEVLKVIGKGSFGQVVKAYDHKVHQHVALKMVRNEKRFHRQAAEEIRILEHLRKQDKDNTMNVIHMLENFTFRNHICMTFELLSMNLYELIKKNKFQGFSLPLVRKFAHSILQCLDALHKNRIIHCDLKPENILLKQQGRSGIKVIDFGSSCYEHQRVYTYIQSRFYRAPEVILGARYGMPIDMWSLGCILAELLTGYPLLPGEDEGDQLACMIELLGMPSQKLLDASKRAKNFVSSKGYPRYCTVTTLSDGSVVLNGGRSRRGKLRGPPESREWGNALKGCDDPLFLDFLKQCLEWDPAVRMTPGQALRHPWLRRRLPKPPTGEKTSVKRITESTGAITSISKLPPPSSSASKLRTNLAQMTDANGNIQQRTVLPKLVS
Chain of Mast/stem cell growth factor receptor Kit (Homo sapiens), P10721 [D816H] (P10721 whole entry D816H): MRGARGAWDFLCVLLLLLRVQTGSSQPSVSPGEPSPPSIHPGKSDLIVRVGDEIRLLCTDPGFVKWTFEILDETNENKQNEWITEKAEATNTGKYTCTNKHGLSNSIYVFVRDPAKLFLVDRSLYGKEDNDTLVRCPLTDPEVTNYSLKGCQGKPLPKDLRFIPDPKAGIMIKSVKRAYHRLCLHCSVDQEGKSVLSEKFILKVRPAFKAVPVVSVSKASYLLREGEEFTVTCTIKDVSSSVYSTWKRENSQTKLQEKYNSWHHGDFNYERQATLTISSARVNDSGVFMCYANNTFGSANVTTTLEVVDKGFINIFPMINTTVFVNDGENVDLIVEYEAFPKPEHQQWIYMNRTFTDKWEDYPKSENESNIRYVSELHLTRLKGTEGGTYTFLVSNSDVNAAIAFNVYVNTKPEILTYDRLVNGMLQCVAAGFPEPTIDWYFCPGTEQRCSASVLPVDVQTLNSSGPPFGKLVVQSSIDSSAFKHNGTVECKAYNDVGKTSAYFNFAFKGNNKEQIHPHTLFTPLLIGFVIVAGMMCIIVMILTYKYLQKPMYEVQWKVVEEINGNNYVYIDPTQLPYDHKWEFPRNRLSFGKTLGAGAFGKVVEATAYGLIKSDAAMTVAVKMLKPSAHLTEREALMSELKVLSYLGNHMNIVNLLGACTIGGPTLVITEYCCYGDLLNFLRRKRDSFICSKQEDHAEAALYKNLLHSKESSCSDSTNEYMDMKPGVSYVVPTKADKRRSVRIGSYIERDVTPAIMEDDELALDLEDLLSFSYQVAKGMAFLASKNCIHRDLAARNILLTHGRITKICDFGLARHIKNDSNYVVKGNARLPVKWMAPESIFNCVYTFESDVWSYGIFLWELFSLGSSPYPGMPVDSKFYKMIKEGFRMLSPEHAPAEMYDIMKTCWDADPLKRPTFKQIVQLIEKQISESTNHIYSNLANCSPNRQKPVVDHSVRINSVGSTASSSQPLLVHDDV
Chain of D(3) dopamine receptor (Homo sapiens) (P35462 whole entry): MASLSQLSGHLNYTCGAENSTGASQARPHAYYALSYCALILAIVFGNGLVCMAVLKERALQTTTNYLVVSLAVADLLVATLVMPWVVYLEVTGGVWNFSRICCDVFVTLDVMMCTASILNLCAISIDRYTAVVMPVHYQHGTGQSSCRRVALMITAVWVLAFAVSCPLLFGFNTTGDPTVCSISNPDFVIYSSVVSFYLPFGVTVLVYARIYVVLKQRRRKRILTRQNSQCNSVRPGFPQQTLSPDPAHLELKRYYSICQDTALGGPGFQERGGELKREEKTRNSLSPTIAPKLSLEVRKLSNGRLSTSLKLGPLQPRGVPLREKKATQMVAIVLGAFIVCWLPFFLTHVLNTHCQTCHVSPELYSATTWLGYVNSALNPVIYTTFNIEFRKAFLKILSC

CN(C)C(=O)Cn1cc(-c2nc(C3(c4ccc(-c5cnc(N)nc5)cc4)CC3)no2)cn1 [BI 0153]
inactive: residual activity [1] 85% | residual activity [2] 81% | inhibition [3] -2.44% | residual activity [4] 89% | residual activity [5] 86% | residual activity [6] 72% | residual activity [7] 93% | residual activity [8] 94% | residual activity [9] 81% | inhibition [10] -1.63% | inhibition [11] 5.81% | inhibition [12] 0.23%

CN(C)C(=O)Cn1cc(-c2nc([C@@](C)(c3ccc(-c4cnc(N)nc4)cc3)C3CC3)no2)cn1 [BI 665915]
inactive: residual activity [1] 100% | residual activity [2] 89% | inhibition [3] -5.97% | residual activity [4] 100% | residual activity [5] 90% | residual activity [6] 95% | residual activity [7] 100% | residual activity [8] 95% | residual activity [9] 75% | inhibition [10] 5.21% | inhibition [11] 10.3% | inhibition [12] -4.97%

— ChEMBL document CHEMBL4507276 (2021)
